Test results taken from publication PMC3083694, “Effects of Intermediates between Vitamins K2 and K3 on Mammalian DNA Polymerase Inhibition and Anti-Inflammatory Activity” (International Journal of Molecular Sciences, 2011).

Experiments:
[1] = molecular target: T1, Human DNA polymerase λ (Homo sapiens, UniProt Q9UGP5); experiment: DNA polymerase activity assay, human pol λ; assay type: biochemical; settings: for Inhibitory effect on human pol λ activity: 50 μM of each compound, Figure 2
T1 construct: made in house
T1 sequence (Q9UGP5 1-575): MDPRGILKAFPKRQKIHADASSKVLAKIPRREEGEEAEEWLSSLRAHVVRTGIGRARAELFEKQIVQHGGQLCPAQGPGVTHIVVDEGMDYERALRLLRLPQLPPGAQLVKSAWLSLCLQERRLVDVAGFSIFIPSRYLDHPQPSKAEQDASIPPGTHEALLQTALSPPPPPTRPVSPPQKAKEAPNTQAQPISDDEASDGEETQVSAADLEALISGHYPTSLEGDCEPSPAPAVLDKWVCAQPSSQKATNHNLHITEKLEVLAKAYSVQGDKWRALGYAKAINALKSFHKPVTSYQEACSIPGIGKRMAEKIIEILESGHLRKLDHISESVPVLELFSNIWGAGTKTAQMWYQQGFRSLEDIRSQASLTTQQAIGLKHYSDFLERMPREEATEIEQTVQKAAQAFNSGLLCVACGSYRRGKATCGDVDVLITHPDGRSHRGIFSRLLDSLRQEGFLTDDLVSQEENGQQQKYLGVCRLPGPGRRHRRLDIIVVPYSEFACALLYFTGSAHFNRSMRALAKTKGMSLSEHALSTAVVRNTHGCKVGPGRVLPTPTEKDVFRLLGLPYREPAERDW
Method: (§1) Pols from mammals, a fish (cherry salmon), an insect (fruit fly) and a plant (cauliflower) were purified, and prokaryotic pols and other DNA metabolic enzymes, such as T7 RNA polymerase, T4 polynucleotide kinase and bovine deoxyribonuclease I, were purchased as described in our previous report. The activities of all pols and other DNA metabolic enzymes were measured as described in previous reports.
(§2) The components of the pol assay were poly(dA)/oligo(dT)18 and dTTP as the DNA template-primer and 2′-deoxyribonucleoside 5′-triphosphate (dNTP) substrate, respectively. VK2, VK3, and their synthesized derivatives (i.e., MK-3, MK-2 and MK-1) were dissolved in dimethyl sulfoxide (DMSO) at various concentrations and sonicated for 30 s. The sonicated samples (4 μL) were mixed with 16 μL of each pol enzyme (final amount, 0.05 units) in 50 mM Tris-HCl (pH 7.5) containing 1 mM dithiothreitol, 50% glycerol and 0.1 mM EDTA, and kept at 0 °C for 10 min. These inhibitor–enzyme mixtures (8 μL) were added to 16 μL of each standard enzyme reaction mixture (50 mM Tris-HCl [pH 7.5], 1 mM dithiothreitol, 1 mM MgCl2, 15% glycerol, 10 μM poly(dA)/oligo(dT)18 and 10 μM [^3H]-dTTP), and incubation was carried out at 37 °C for 60 min, except for Taq pol, which was incubated at 74 °C for 60 min. Activity without the inhibitor was considered to be 100%, and the activity remaining at each concentration of inhibitor was determined relative to this value. One unit of pol activity was defined as the amount of enzyme that catalyzed the incorporation of 1 nmol dNTP (dTTP) into the synthetic DNA template-primer (poly(dA)/oligo(dT)18, A/T = 2/1) in 60 min at 37 °C under normal reaction conditions for each enzyme (scintillation counts: approximately 1 pmol of incorporated radioactive nucleotides = 100 cpm).

[2] = molecular target: T2, Human DNA polymerase κ (Homo sapiens, UniProt Q9UBT6); experiment: DNA polymerase activity assay, human pol κ; assay type: biochemical; settings: for Inhibitory effect on human pol κ activity: 50 μM of each compound, Figure 2
T2 construct: made in house
T2 sequence (Q9UBT6 1-560 limits assumed): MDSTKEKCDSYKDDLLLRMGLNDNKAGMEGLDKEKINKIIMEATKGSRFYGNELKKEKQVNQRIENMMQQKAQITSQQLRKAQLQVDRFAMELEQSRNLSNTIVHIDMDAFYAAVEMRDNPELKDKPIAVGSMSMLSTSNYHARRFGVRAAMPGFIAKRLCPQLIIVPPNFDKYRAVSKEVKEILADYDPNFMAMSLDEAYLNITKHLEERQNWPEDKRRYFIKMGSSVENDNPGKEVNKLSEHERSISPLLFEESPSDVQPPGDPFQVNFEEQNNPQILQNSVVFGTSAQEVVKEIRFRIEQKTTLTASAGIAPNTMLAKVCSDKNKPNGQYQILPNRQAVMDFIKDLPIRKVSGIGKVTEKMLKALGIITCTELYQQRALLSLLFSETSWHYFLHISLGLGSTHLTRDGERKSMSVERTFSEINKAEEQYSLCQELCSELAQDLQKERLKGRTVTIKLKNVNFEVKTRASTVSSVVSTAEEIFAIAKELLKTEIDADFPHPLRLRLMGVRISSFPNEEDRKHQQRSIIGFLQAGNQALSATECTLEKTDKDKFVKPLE
Method: as §1, §2

[3] = tested on: LPS-induced production of TNF-α in RAW264.7 cells; experiment: LPS-induced TNF-α production in mouse macrophages (ELISA); assay type: cell-based; settings: Figure 4; for Inhibitory effect on LPS-stimulated TNF-α production: 10 and 50 μM tested, concentration not specified; for Suppression of LPS-stimulated production of TNF-α: then 100 ng/mL LPS 24 h
Method: A mouse macrophage cell line, RAW264.7, was obtained from American Type Culture Collection (ATCC) (Manassas, VA, U.S.). The cells were cultured in Eagle’s Minimum Essential Medium (MEM) supplemented with 4.5 g of glucose per liter plus 10% fetal calf serum, 5 mM L-glutamine, 50 units/mL penicillin and 50 units/mL streptomycin. The cells were cultured at 37 °C in standard medium in a humidified atmosphere of 5% CO2–95% air.
RAW264.7 cells were placed in a 12-well plate at 5 × 10^4 cells/well and incubated for 24 h. The cells were pretreated with the VK2 and VK3 intermediates (final concentrations of 10 and 50 μM) for 30 min before the addition of 100 ng/mL of LPS. After stimulation with LPS for 24 h, the cell culture medium was collected to measure the amount of TNF-α secreted. The concentration of TNF-α in the culture medium was quantified by using a commercially available enzyme-linked immunosorbent assay (ELISA) development system (Bay Bioscience Co., Ltd., Kobe, Japan) in accordance with the manufacturer’s protocol.

SMILES	Inhibitory effect on human pol λ activity [1]	Inhibitory effect on human pol κ activity [2]	Inhibitory effect on LPS-stimulated TNF-α production [3]	IC50 ([1]; X-family pol, read-out: IC50 Value of MK-2, Human DNA polymerase λ) [µM]	IC50 ([2]; Y-family pol, read-out: IC50 Value of MK-2, Human DNA polymerase κ) [µM]	Suppression of LPS-stimulated production of TNF-α ([3]; 10 μM compound 30 min)	Suppression of LPS-stimulated production of TNF-α ([3]; 50 μM compound 30 min)
CC(C)=CCC/C(C)=C/CC/C(C)=C/CC/C(C)=C/CC1=C(C)C(=O)c2ccccc2C1=O [MK-4, menaquinone 4, reference compound]	had no effect on pol activity	had no effect on pol activity	moderate inhibitory effect	–	–	–	–
CC(C)=CCC/C(C)=C/CC1=C(C)C(=O)c2ccccc2C1=O [MK-2]	inhibited the activity	inhibited the activity	–	24.6 ± 1.4	35.3 ± 2.1	significantly suppressed	significantly suppressed
CC(C)=CCC/C(C)=C/CC/C(C)=C/CC1=C(C)C(=O)c2ccccc2C1=O [MK-3]	inhibited the activity	inhibited the activity	moderate inhibitory effect	–	–	–	–
CC(C)=CCC1=C(C)C(=O)c2ccccc2C1=O [MK-1]	inhibited the activity	inhibited the activity	–	–	–	–	significantly suppressed
